Like-named read-outs stand apart in the source and are kept apart here.
Experiment: In vitro release of conjugates in phosphate buffer (Method E)
Format: physicochemical
Method: In vitro release for conjugates in buffer: In separate containers Compound 2a (˜0.1-0.5 mg/mL), Compound 3a (˜0.5-5 mg/mL) and Compound 4a (˜0.2-1 mg/mL) were dissolved in 100 mM phosphate buffer pH 7.5 (or other pH values as indicated). The conjugates were filtered through a 0.2 micron filter into a HPLC vial. The HPLC sample vials were incubated at 37° C. and injected at various intervals on a HPLC system with C18 silica column applying an acetonitrile gradient with 0.1% TFA; retention times observed were sunitinib ˜3.5 minutes and conjugates either ˜2.2 minutes for Compound 2a or ˜10.8 minutes for Compounds 3a or 4a. Release data for the t1/2 values were obtained from the slope of the linear fit to a plot of ln(A(conjugate)/A0(conjugate)) vs. time, according to the first order rate law.
The half-lives observed for several sunitinib conjugates of the invention were determined in buffer and plasma according to the descriptions in “Method E” provided in the Experimental.

half-life (100 mM phosphate buffer pH 7.5, 37° C., read-out: Release half-life, Phosphate pH 7.5): ~3 min
half-life (phosphate buffer pH 6.8, 37° C., read-out: Release half-life, Phosphate pH 6.8): ~10 min
SMILES: CCN(CC)CCN(C(=O)OCC(O)CO)C(=O)c1c(C)[nH]c(/C=C2\C(=O)Nc3ccc(F)cc32)c1C (centres unmarked) [Compound 1e, (Z)-2,3-dihydroxypropyl 2-(diethylamino)ethyl(5-((5-fluoro-2-oxoindolin-3-ylidene)methyl)-2,4-dimethyl-1H-pyrrole-3-carbonyl)carbamate]

From patent US9827326B2, “Polymer-sunitinib conjugates” (Nektar Therapeutics, priority 2010, dated 2017)
